These results are taken from US20140094413A1, “HEPATOCYTE GROWTH FACTOR (HGF) MIMICS AS THERAPEUTIC AGENTS” (WASHINGTON STATE UNIVERSITY, priority 2012, published 2014).

The nature of data set [1]: Microsomal metabolism. Type of data set: in vitro ADME, rat. To be noted: over 90 min; data not shown.
Data set [2] concerns the target T1, human HGF (Homo sapiens, UniProt P14210).
T1 construct: purchased R&D Systems (Minneapolis, Minn.)
As to the kind of experiment: HGF binding, competition with 3H-Hinge. The settings on record: 1.25 ng HGF, 40 min at 37° C.; N=9. The protocol:
The binding of 6-AH analogs to HGF was assessed by competition using a soluble binding assay. 250 μl of PBS containing human HGF (1.25 ng) were incubated with ^3H-Hinge, the central dimerization domain of HGF, in the presence of varying concentrations of 6-AH analogs between 10^−13 M to 10^−7M (half-log dilutions) for 40 min at 37° C. The incubates were then spun through Bio-Gel P6 spin columns (400 μl packed volume) for 1 min to separate free and bound ^3H-Hinge and the eluent was collected. Five milliliters of scintillation fluid was added to the eluent, which contained the HGF bound ^3H-Hinge, and was then counted using scintillation counter. Total disintegrations per minute of bound ^3H-Hinge were calculated based on machine counting efficiency. The Ki values for the binding of the peptides were determined using the Prism 5. Competition binding curves were performed in triplicate.

In data set [3] the target is T1, human HGF. The experiment in a line: HGF dimerization. The settings on record: analogs at 10^−10 M, heparin, 30 minute incubation. The data set is classed as biochemical. The protocol: HGF dimerization was assessed using PAGE followed by silver staining (Kawas et al., 2011). Human HGF at a concentration of 0.08 ng/μl with or without 6-AH analogs was incubated with heparin at a final concentration of 5 μg/ml. Loading buffer was then added to each sample and the mixture separated by native PAGE using gradient Criterion XT precast gels (4-12% Bis-Tris; Biorad Laboratories, Hercules, Calif.). Next the gel was silver stained for the detection of the HGF monomers and dimers. Bands were quantitated from digital images using a UVP phosphoimager (Upland, Calif.).

Data set [4] concerns Met. As to the kind of experiment: Inhibition of HGF-dependent Met phosphorylation in HEK293 cells. The data set is classed as cell-based, human. To be noted: 10 min with HGF+/− analog. As to the method: HEK293 cells were seeded in 6 well tissue culture plates and grown to 95% confluency in DMEM containing 10% FBS. The cells were serum deprived for 24 h prior to the treatment to reduce the basal levels of phospho-Met. Following serum starvation, cocktails comprised of vehicle and HGF with/without 6-AH analogs were prepared and pre-incubated for 30 min at room temperature. The cocktail was then added to the cells for 10 min to stimulate the Met receptor and downstream proteins. Cells were harvested using RIPA lysis buffer (Millipore; Billerica, Mass.) fortified with phosphatase inhibitor cocktails 1 and 2 (Sigma-Aldrich; St. Louis, Mo.). The lysate was clarified by centrifugation at 15,000 nx g for 15 min, protein concentrations were determined using the BCA total protein assay (Pierce), and then appropriate volumes of the lysates were diluted with 2× reducing Laemmli buffer and heated for ten min at 95° C. Samples containing identical amounts of protein were resolved using SDS-PAGE (Criterion, BioRad Laboratories), transferred to nitrocellulose, and blocked in Tris-buffered saline (TBS) containing 5% milk for 1 h at room temperature. The phospho-Met antibody were added to the blocking buffer at a final concentration of 1:1000 and incubated at 4° C. overnight with gentle agitation. The membranes were then washed several times with water and TBS ([…], 0.05% Tween-20), a 1:5000 dilution of horseradish-peroxidase conjugated goat anti-rabbit antiserum was added, and the membranes further incubated for 1 h at room temperature. Proteins were visualized using the Supersignal West Pico Chemiluminescent Substrate system (Pierce, Fenton, Mo.) and molecular weights determined by comparison to protein ladders (BenchMark, Invitrogen, and Kaleidoscope, BioRad). Film images were digitized and analyzed using a UVP phosphoimager.

The subject of data set [5] is MDCK cells. The experiment in a line: HGF-dependent MDCK cell proliferation (MTT). To be noted: analogs at 10^−10M, HGF 10 ng/ml, 4 days. Type of data set: cell-based, canine. As to the method:
5000 MDCK cells were seeded into the wells of a 96 well plates in 10% FBS DMEM. To induce cellular quiescence, the cells were serum deprived for 24 h prior to initiating the treatments. Following serum starvation, 10 ng/ml HGF alone and with various concentrations of 6-AH analogs or PBS vehicle were added to the media. The cells were allowed to grow under these conditions for 4 days with a daily addition of 6-AH analogs. On the fourth day, 1 mg/ml of […] (MTT, Sigma-Aldrich) prepared in PBS was added to the cells and incubated for 4 h. Dimethyl sulfoxide diluted in a 0.01M glycine buffer was added to solubilize the cell membranes and the absorbance of reduced MTT in the buffer was quantitated at 590 nm using a plate reader (Biotek Synergy 2, Winooski, Vt.). HGF-dependent proliferation was determined by subtracting the basal proliferation (in the absence of HGF) from total proliferation rates in groups containing HGF.

In data set [6] the test system is MDCK cells. As to the kind of experiment: Inhibition of HGF-dependent scattering in MDCK cells. Type of data set: cell-based, canine. The settings on record: HGF 20 ng/ml, 48 h. As to the method: MDCK cells were grown to 100% confluency on the coverslips in six-well plates and washed twice with PBS. The confluent coverslips were then aseptically transferred to new six well plates containing 900 μl serum free DMEM. Norleual, Hinge peptide, and/or HGF (20 ng/ml) were added to appropriate wells. Control wells received PBS vehicle. Plates were incubated at 37° C. with 5% CO2 for 48 h. Media was removed and cells were fixed with methanol. Cells were stained with Diff-Quik Wright-Giemsa (Dade-Behring, Newark, Del.) and digital images were taken. Coverslips were removed with forceps and more digital images were captured. Pixel quantification of images was achieved using Image J and statistics were performed using Prism 5 and InStat v.3.05 (GraphPad; San Diego, Calif.).

The conditions of data set [7]: rat.
Protocol: Male Sprague-Dawley rats (250+ g) were allowed food (Harlan Teklad rodent diet) and water ad libitum in our AAALAC certified animal facility. Rats were housed in temperature-controlled rooms with a 12 h light/dark cycle. The right jugular veins of the rats were catheterized with sterile polyurethane Hydrocoat™ catheters (Access Technologies, Skokie, Ill., USA) under ketamine (Fort Dodge Animal Health, Fort Dodge, Iowa, USA) and isoflurane (Vet One™, MWI, Meridian, Id., USA) anesthesia. The catheters were exteriorized through the dorsal skin. The catheters were flushed with heparinized saline before and after blood sample collection and filled with heparin-glycerol locking solution (6 mL glycerol, 3 mL saline, 0.5 mL gentamycin (100 mg/mL), 0.5 mL heparin (10,000 u/mL)) when not used for more than 8 h. The animals were allowed to recover from surgery for several days before use in any experiment, and were fasted overnight prior to the pharmacokinetic experiment.
Catheterized rats were placed in metabolic cages prior to the start of the study and time zero blood samples were collected. […] After dosing, blood samples were collected as follows (times and blood volumes collected are listed in chronological order):
After each blood sample was taken, the catheter was flushed with saline solution and a volume of saline equal to the volume of blood taken was injected (to maintain total blood volume).
Upon collection into polypropylene microfuge tubes without heparin, blood samples were immediately centrifuged at 4° C., 2300×g for 5 min to remove any cells and clots and the serum transferred into clean microcentrifuge tubes. A volume of internal standard (Nle^1-AngIV, 100 μg/mL) equal to 0.1 times the sample serum volume was added. A volume of ice-cold acetonitrile equal to four times the sample serum volume was then added and the sample vortexed vigorously for 30 s. The supernatants were transferred to clean tubes, then held on ice until the end of the experiment, and stored at 4° C. afterward until further processing.
All samples were evaporated to dryness in a Savant SpeedVac® concentrator. […] The samples were then transferred to HPLC autosampler vials and 100 μl was injected into the HPLC system a total of 2 times (2 HPLC/MS analyses) for each sample.
Data collection and integration were achieved using Shimadzu LCMS solution software. The analytical column used was an Econosphere C18 (100 mm×2.1 mm) from Grace Davison Discovery Science (Deerfield, Ill., USA). The mobile phase consisted of HPLC grade methanol and water with 0.1% trifluoroacetic acid. Separation was carried out using a non-isocratic method (40%-50% methanol over 10 min) at ambient temperature and a flow rate of 0.3 mL/min. […] Data were normalized based on the recovery of the internal standard.
Pharmacokinetic analysis was performed using data from individual rats. The mean and standard deviation (SD) were calculated for the group.
Data set [8] in a line: Blood stability studies. To be noted: heparinized rat blood, 37° C.; single phase exponential decay.
Protocol: (§1) At the end of each incubation, 20 μL of Nle^1-AngIV (100 μg/mL) was added to each sample as an internal standard. […] All samples were centrifuged at 4° C., 2300×g for 5 min and the supernatants were transferred to clean tubes.
(§2) Samples were then separated by HPLC on an Econosphere C18 (100 mm×2.1 mm) from Grace Davison Discovery Science (Deerfield, Ill.). […] The mobile phase consisted of HPLC water (Sigma St. Louis, Mo.) with 0.1% trifluoroacetic or 0.1% heptafluorobutyric acid (Sigma St. Louis, Mo.) and varying concentrations of ACN or methanol. Separation was carried out using a gradient method, at ambient temperature and a flow rate of 0.3 mL/min (see below for more information). Stability half-lives were determined assuming a normal single phase exponential decay using Prism 5 graphical/statistical program (GraphPad, San Diego, Calif.).
The subject of data set [9] is B16-F10 murine melanoma cells. As to the kind of experiment: B16-F10 melanoma lung colony formation. The settings on record: C57BL/6 mice, daily IP 10 μg/kg/day or 100 μg/kg/day, 14 days. The data set is classed as in vivo, mouse. As to the method: Six to eight month old C57BL/6 mice were injected with 400,000 B16-F10 cells in 200 μl PBS by tail vein injection and subsequently received daily intraperitoneal injections of either D-Nle-X-Cys-NH—(CH2)5—CONH2 ([…]) or a PBS vehicle control. Two weeks later, mice were anesthetized and lungs were perfused with PBS and removed. Photos were taken and lungs were solubilized in 1% Triton x-100, 20 mM Tris, 0.15 M NaCl, 2 mM EDTA, and 0.02% sodium azide. Samples were disrupted by sonication (Mixonix, Farmingdale, N.Y.) and spun. The supernatant was transferred to a 96 well plate and melanin absorbance at 410 nm was measured using a plate reader.

The conditions of data set [10]: rat. The source holds these as a separate data set.
Protocol: as §1, §2

“And” between values parts separate entries of the source, which are not always exact repeats. Equal values may be shown once. “Also recorded” adds a separate entry of the source. Read-outs that look alike come from different tables or passages of the source. Where a SMILES comes first, the peptide text is derived from it. [ ]: non-standard residue; d: D form. dNle = CCCC[C@@H](N)C(=O)O; Ahx = NCCCCCC(=O)O

T1 sequence (P14210 32-728): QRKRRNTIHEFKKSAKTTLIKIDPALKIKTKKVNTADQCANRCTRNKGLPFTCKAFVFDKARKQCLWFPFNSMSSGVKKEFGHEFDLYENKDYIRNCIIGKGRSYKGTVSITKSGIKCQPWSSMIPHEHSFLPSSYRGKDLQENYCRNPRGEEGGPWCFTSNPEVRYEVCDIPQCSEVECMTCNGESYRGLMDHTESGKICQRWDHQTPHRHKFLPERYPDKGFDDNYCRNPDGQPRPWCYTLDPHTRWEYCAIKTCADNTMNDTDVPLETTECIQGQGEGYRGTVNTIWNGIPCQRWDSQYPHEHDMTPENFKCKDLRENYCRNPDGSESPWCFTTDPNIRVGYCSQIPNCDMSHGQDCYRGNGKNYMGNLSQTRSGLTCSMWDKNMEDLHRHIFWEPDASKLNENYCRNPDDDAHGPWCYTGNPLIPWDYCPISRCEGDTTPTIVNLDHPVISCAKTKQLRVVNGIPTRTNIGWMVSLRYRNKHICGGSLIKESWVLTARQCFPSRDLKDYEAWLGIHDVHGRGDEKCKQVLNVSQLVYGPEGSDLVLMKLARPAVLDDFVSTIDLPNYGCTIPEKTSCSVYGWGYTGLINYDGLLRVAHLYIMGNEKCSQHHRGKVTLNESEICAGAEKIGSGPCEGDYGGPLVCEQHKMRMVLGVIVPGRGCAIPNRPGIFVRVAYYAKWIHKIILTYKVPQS

With `CCCC[C@@H](N)C(=O)N[C@@H](Cc1ccc(O)cc1)C(=O)N[C@H](C(=O)NCCCCCC(N)=O)[C@@H](C)CC` (H-[dNle]YI[Ahx]-NH2), the “Phase I metabolism in rat liver microsomes” value in [1] is “no detectable metabolism”. The Ki in data set [2] is 0.243 nM. For the same compound, the “Inhibition of HGF dimerization” value in data set [3] is reported as “completely block HGF dimer formation”. Also, in data set [3] (listed as Tyr), the “Inhibition of HGF dimerization” value is given as “statistically different than the HGF treated group”. Further, the “Inhibition of HGF-dependent Met phosphorylation” value in data set [4] was “able to block Met auto-phosphorylation”. For the same compound, in [5], the “Inhibition of HGF-dependent MDCK cell proliferation” value is on record as “marked inhibitory activity”. Further, in data set [6], the “Inhibition of HGF-dependent MDCK cell scattering” value is given as “different from the HGF alone group but not different from the control group”. Further, in data set [7] (in vivo), the “Total recovery from serum” value was “greater than 35%”. Moreover, in data set [7] (in vivo, iv, 24 mg/kg), the AUC(0-inf) was 11500 ng·h/mL, the C0 came out at 68.2 ± 32.2 µg/mL, the “KE (rate of elimination)” value is 0.001 ± 0.0002 min − 1 and the Vd is 104 ± 65 L/kg. The compound also returned a clearance in [7] (in vivo, iv, 24 mg/kg) of 58.3 ± 15.6 mL/min/kg. Besides, the “t1/2 (in vivo elimination half-life)” value in data set [7] (iv, 24 mg/kg) was found to be 16.87 h. Besides, in [8], the “Stability t1/2 in blood” value was 1.33 h and 1.333 h.

`CCCC[C@@H](N)C(=O)N[C@@H](CS)C(=O)N[C@H](C(=O)NCCCCCC(N)=O)[C@@H](C)CC` [D-Nle-Cys-Ile-NH—(CH2)5—CONH2] (H-[dNle]CI[Ahx]-NH2) displayed a Ki in data set [2] of 0.133 nM. The “Inhibition of HGF dimerization” value is “completely block HGF dimer formation” in data set [3] and “statistically different than the HGF treated group” in data set [3] (listed as Cys). Also, in data set [4], the “Inhibition of HGF-dependent Met phosphorylation” value is listed as “able to block Met auto-phosphorylation”. Further, the “Inhibition of HGF-dependent MDCK cell proliferation” value in [5] is listed as “marked inhibitory activity”. In addition, in [6], the “Inhibition of HGF-dependent MDCK cell scattering” value is listed as “different from the HGF alone group but not different from the control group”. In addition, the “Inhibition of B16-F10 melanoma lung colonization” value in data set [9] is recorded as “suppressed pulmonary colonization; also recorded: radically prevented lung colonization”; in data set [9] (listed as D-Nle-Cys-Ile-(6)-amino-hexanoic amide), “obvious reduction in melanoma colonies”.

For the compound `CCCC[C@H](N)C(=O)N[C@@H](Cc1ccc(O)cc1)C(=O)N[C@H](CN[C@@H](Cc1c[nH]cn1)C(=O)N1CCC[C@H]1C(=O)N[C@@H](Cc1ccccc1)C(=O)O)CC(C)C` [Norleual, Nle-Tyr-Leu-Ψ-(CH2—NH2)^3-4-His-Pro-Phe], the “Stability t1/2 in blood” value in [10] was determined as 4.6 min.

What is called Ki is the dissociation constant of the complex between target and ligand, obtained from inhibition or displacement. Low readings indicate higher affinity, high ones lower affinity. One may read the AUC(0-inf) as total exposure, with the tail of the curve extrapolated. Read a high AUC(0-inf) as more exposure. The term Vd denotes a proportionality between amount in the body and measured concentration, not a real space. Lower therefore signals little distribution into tissue. A word on the clearance: it is the rate of elimination divided by the concentration. The low end stands for inefficient removal, the high end for efficient removal.
